Experimental data: US12129305B2, “Targeting CLPTM1L for treatment and prevention of cancer” (The Medical College of Wisconsin, Inc., priority 2018, dated 2024)

Key:
[1] = tested on: ID8-luc ovarian tumor cells; test: ID8-luc orthotopic syngeneic ovarian isograft model; assay type: in vivo, C57bl/6 mice; settings: carboplatin alone, 10 mg/kg weekly for three weeks; over 35 days
Protocol: ID8-luc model: Five-week-old C57bl/6 mice (Jackson labs strain 664) were acclimated for one week and injected intraperitoneally with […] luciferase expressing ID8 syngeneic ovarian tumor cells suspended in 200 μL of PBS under Medical College of Wisconsin animal protocol AUA6339. One week after injection, antibodies and/or chemotherapeutic agents were administered intraperitoneally at the indicated doses. Chemotherapeutic doses or vehicle were administered one day before control or therapeutic antibody doses. Imaging and analysis of luciferin radiance was done up to twice weekly on an IVIS Spectrum-CT Imaging System equipped with thermoelectrically-cooled CCD camera. Mice were monitored twice weekly for weight and signs of morbidity. Mice were euthanized after 45 days or upon signs of morbidity. Animal studies were conducted using the standards for humane treatment of animals as described in the U.S. Public Health Service Policy on Humane Care and Use of Laboratory Animals.
With disseminated peritoneal disease being the most common presentation upon recurrence of ovarian carcinoma, we utilized an orthotopic isograft model of disseminated peritoneal ovarian cancer. Human anti-CLPTM1L binding to luciferase-expressing ID8 ovarian tumor cells (ID8-luc) was detected by flow cytometry (FIG. 31A). […] Tumor load was monitored by luciferin luminescence using whole body imaging. […]

SL3 parental xenografts = test: SL3 xenograft model, parental; assay type: in vivo, NU/J mice; settings: weekly 2.5 mg/kg cisplatin and/or 5 mg/kg 102-5; 24 days post-inoculation
Protocol: (§1) Four-week old female NU/J mice (2019, Jackson Laboratories) were acclimated for 1 week before injection of 0.5×10^6 parental SL3 or 1×10^6 cisplatin-resistant SL3-cis cells subcutaneously into the flank in 200 μL PBS. Tumors were measured with calipers and volumes were calculated by ½ (W×W×L). After tumors had grown to an average of 100 mm^3, mice were separated into groups of 5 mice, each group with 100 mm^3 average tumor sizes. Mice were treated weekly with intraperitoneal doses of PBS control, cisplatin 2.5 mg/kg, and/or 102-5 5 mg/kg in 200 μL of PBS at room temperature beginning on day 6 post-inoculation. Cisplatin treatments were administered 24 hours following antibody treatment. Tumor volume was measured at least weekly. Animal health was monitored daily and animal weights measured at least weekly. All procedures were reviewed and approved by MCW IACUC committee #2 under AUA6339.
(§2) J/NU mice xenografted with SL3 parental or SL3-cis platinum resistant cells were treated weekly with control vehicles, 2.5 mg/kg cisplatin, and/or 5 mg/kg 102-5 anti-CLPTM1L. The effects of cisplatin and those of 102-5 on cisplatin treatment were investigated in this model rather than those of carboplatin since the SL3cis line was developed specifically as a cisplatin resistant line.

[2] = tested on: SL3-cis platinum resistant xenografts; test: SL3 xenograft model, cisplatin resistant; assay type: in vivo, NU/J mice; settings: weekly 2.5 mg/kg cisplatin and/or 5 mg/kg 102-5; 24 days post-inoculation
Protocol: as §1, §2

[3] = tested on: Caspase-3 cleavage and Akt phosphorylation in SL3cis; test: Western blotting of SL3cis lysates for caspase cleavage and Akt phosphorylation; assay type: cell-based, human; settings: SL3cis spheroids
Protocol: (A) A2780 apoptotic killing (casp 3/7 live imaging) after 36 hour mAb treatment (scFv clones 102-4a left, 102-5a right) and 24-hour carboplatin treatment. (B) Dose-response to up to 20 μM carboplatin in resistant A2780 cells treated with either control IgG1 or 102-5, relative to 0 carboplatin controls. (C) Kinetic killing assay (live imaging) in A2780 with human anti-CLP™1L scFv and/or 10 μM carboplatin treatment. *p<0.05, **p<0.005, ***p<0.0005. (D) Western blotting and densitometry for Akt and phospho-Akt (T308) in A2780 andA2780cis. […]
Cells were lysed with 100 μL of 1× NP40 lysis buffer containing proteinase inhibitors, sheared 10 times with a 28-gauge needle, spun at 16,000×g for 30 minutes, normalized by protein concentration as determined by the Bradford method, and the supernatant boiled for 5 minutes. Twenty microliters of normalized lysate were resolved by SDS-PAGE on 10% acrylamide gels at 150 volts for 1 hour, transferred by iBlot dry transfer (Life Technologies), blocked for 2 hours with TBST 10% milk, incubated with primary antibodies at 1:1000 in TBST 5% milk at 4C overnight with rocking, washed 3×5 minutes with TBST, incubated with secondary anti-rabbit-HRP (Santa Cruz Biotechnology) or goat anti-human-HRP (Invitrogen MH1715) at 1:10,000 in TBST 5% milk for 2 hours with rocking, washed 5×10 minutes with TBST, and signal analyzed using a Biorad Chemidoc XRS. […]

SMILES | tumor load [1] [fold] | tumor growth and volumes (SL3 parental xenografts) | tumor growth [2] | Akt phosphorylation at threonine 308 [3] | Caspase-3 cleavage ([3]; 16 days of growth)
N.N.O=C([O-])C1(C(=O)[O-])CCC1.[Pt+2] [carboplatin, reference compound] | 1.23 |  |  |  | 
N.N.[Cl][Pt][Cl] [cisplatin, reference compound] |  | significantly inhibited | significantly inhibited tumor growth only in combination therapy with 102-5 anti-CLPTM1L | induced by cisplatin treatment | Caspase-3 cleavage was induced
